Values of other authors, collected in patent US20160250192A1, “PRODUCTION METHOD OF PHARMACEUTICAL COMPOSITION CONTAINING CANDESARTAN CILEXETIL” (Sawai Pharmaceutical Co., Ltd., priority 2013, published 2016).

- solubility in water: poorly soluble
Compound: CCOc1nc2cccc(C(=O)OC(C)OC(=O)OC3CCCCC3)c2n1Cc1ccc(-c2ccccc2-c2nnn[nH]2)cc1 (racemic) [Candesartan cilexetil, (RS)-1-[(cyclohexyloxy)carbonyloxy]ethyl 2-ethoxy-1-{[2′-(1H-tetrazole-5-yl)-biphenyl-4-yl]methyl}-1H-benzimidazole-7-carboxylate]
